Earlier results on one molecule are cited in PMC8791944, “GLUT3 inhibitor discovery through in silico ligand screening and in vivo validation in eukaryotic expression systems” (Scientific Reports, 2022).

The subject of this series is GLUT3. Conditions: read-out: KM of 2-deoxy-glucose for GLUT3; GLUT3 expressed in Xenopus laevis oocytes ref 12; cited from earlier work.

What is called Km is the substrate concentration at which the rate is half of its maximum. On to `O=CC[C@@H](O)[C@H](O)[C@H](O)CO` [2-deoxy-glucose, 2-deoxy-D-glucose], for which the Michaelis-Menten constant (Km) is approximately 1400 µM.
